Source: article PMC9841585 (ACS Medicinal Chemistry Letters, 2022)

Test system: CHO cells
Experiment: Biotium XTT cell viability kit
Type: cell-based, Chinese hamster
Details: 24 hours, medium with 5% serum

Cc1nc(N2CCN(C(=O)c3ccco3)CC2)c2c3c(sc2n1)CC(C)(C)CC3 [Compound 24]
cytotoxicity (no cytotoxicity up to): > 10 µM
